From patent publication US9408847B2, “Combination therapy” (Novartis AG, priority 2012, dated 2016)

Tested on: MCF7 tumor xenograft
Assay: MCF7 tumor xenograft model in vivo
Conditions: female nude mice
Method: MCF-7 cells were purchased from American Type Culture Collection (ATCC). They were tested free of mycoplasma and viral contamination in the IMPACT VIII PCR assay panel (RADIL, MU Research Animal Diagnostic Laboratory, Columbia, Mo.). They were cultured in EMEM medium (ATCC#30-2003) containing 10% heat inactivated fetal bovine serum, and were at passage 18 for this experiment. Female, nude mice from Harlan (Hsd:Athymic Nude-Foxn1nu) were used in this xenograft study. Mice received 17b-estradiol pellets (0.18 mg/pellet, 90-day release) (Innovative research of America Catalog # NE-121) implanted between the shoulder blades three days before cell implantation. Tumor volume and body weight were monitored throughout the experiment.

| SMILES | T/T0 (monotherapy at 5 mg/kg) | T/T0 (monotherapy at 75 mg/kg) |
| --- | --- | --- |
| COC1CC2CC[C@@H](C)[C@@](O)(O2)C(=O)C(=O)N2CCCC[C@H]2C(=O)OC(C(C)C[C@@H]2CCC(OCCO)[C@H](OC)C2)CC(=O)C(C)/C=C(\C)[C@@H](O)C(OC)C(=O)[C@H](C)CC(C)/C=C/C=C/C=C/1C (stereo in doubt) [Compound B, (1R,9S,12S,15R,16E,18R,19R,21R,23S,24E,26E,28E,30S,32S,35R)-1,18-dihydroxy-12-{(1R)-2-[(1S,3R,4R)-4-(2-hydroxyethoxy)-3-methoxycyclohexyl]-1-methylethyl}-19,30-dimethoxy-15,17,21,23,29,35-hexamethyl-11,36-dioxa-4-aza-tricyclo[30.3.1.04,9]hexatriaconta-16,24,26,28-tetraene-2,3,10,14,20-pentaone] | −21% | – |
| CN(C)C(=O)c1cc2cnc(Nc3ccc(N4CCNCC4)cn3)nc2n1C1CCCC1 [Compound A] | – | −9% |
